Source: patent US9512139B2, “Conformationally constrained, fully synthetic macrocyclic compounds” (POLYPHOR AG, priority 2009, dated 2016)

Legend:
Purinoreceptor P2Y1 = target: T1, Purinoreceptor P2Y1 (Homo sapiens, UniProt P47900); test: Ca2+ assay (FLIPR) for the GPCR purinoreceptor P2Y1, agonist and antagonist mode; assay type: cell-based; settings: P2Y1 receptor
T1 construct: host or cells: Ca2+ optimized hematopoietic cell lines (rat)
Method: Biological and Pharmacological Methods 1. Ca^2+ Assays for the GPCRs Motilin Receptor, Prostaglandin F (FP) Receptor, 5-hydroxytryptamine 2B (5-HT2B) Receptor, and Purinoreceptor P2Y1
(§1) Assays were performed using on a FLIPR^TETRA fluorometric imaging plate reader (Molecular Devices) with ScreenWorks Version 2 (Molecular Devices) as device operating and data analysis software.
(§2) Dose dependent agonist and antagonist activities were determined. Percentage activation and percentage inhibition values were determined.
(§3) Percentage activation was determined upon initial addition of the sample compounds followed by 10 minutes incubation at 25° C. Following compound incubation, reference agonists were added at EC80 to determine percentage inhibition.
(§4) Reference agonists were purchased from reputable commercial vendors and prepared according to each ligand's specifications. All handling of ligands were done to ensure proper control throughout the experiments.
(§5) Example compounds were weighed on a Microbalance (Mettler MX5) and dissolved in 100% DMSO to a final concentration of 2.5 mM and subsequently diluted into the assay buffer.
(§6) The Assay buffer was a supplemented HBSS (Hank's Balanced Salt Solution). HBSS was supplemented with 20 mM HEPES (4-(2-hydroxyethyl)-piperazin-1-ethansulfonic acid) and 2.5 mM Probenecid (Sigma P8761).
(§7) GPCR assays were performed using Ca^2+ optimized hematopoietic cell lines (rat) with cultures never exceeding 90% confluency. Cells were harvested and seeded (from cultures at less than 90% confluency) at 50000 cells/well for a 96-well plate (12500 cells/well for 384). After seeding, the assay plates were incubated for forty-five (45) minutes at room temperature. After room temperature incubation, the assay plates were incubated at 37° C. 5% CO2 for 24 hours prior to assaying.
(§8) All GPCR assays were performed using Fluo-8 Ca^2+ dye. Ca^2+ dye was prepared at 1× dye concentration in GPCR assay buffer. After 24 hours of incubation, cells were washed with GPCR assay buffer, and then Ca^2+-dye (100 μL/well) was added.
(§9) The plates were incubated for 90 minutes at 30° C. 5% CO2 prior to FLIPR assay.
(§10) Compound plates were prepared to add 50 μL/well during the agonist assay mode. During the FLIPR assay, 50 μL/well from the compound plate was diluted 3-fold into the existing 100 μL/well from the dye loading step. Therefore all compounds were prepared as 3× the final concentration desired in the assay.
(§11) After completion of the first single addition assay run, assay plate was removed from the FLIPR Tetra and placed at 25° C. for seven (7) minutes before antagonist assay.
(§12) Using the EC80 values determined during the agonist assay, all pre-incubated sample compound and reference antagonist (if applicable) wells were stimulated at the EC80 of the reference agonist. As reference ligands for the first three assays their obvious natural ligands motilin, prostaglandin F2α, and serotonin (5-HT, 5-Hydroxytryptamine) were used; and for the P2Y1 assay 2MeSATP (2-methyl-thio-adeno-sine 5′-triphosphate, i.e. (2R,3S,4R)-5-(6-amino-2-methylsulfanyl-purin-9-yl)-3,4-dihydroxy-tetrahydrofuran-2-yl]methyl (hydroxy-phosphonooxy-phosphoryl)hydrogen phosphate) was applied.
(§13) After the addition of the reference agonist fluorescence was monitored for 180 sec using FLIPR Tetra.
(§14) Data Analysis and Results:
(§15) From the FLIPR data, with negative control correction enabled, the maximum statistic for each well was exported and percentage activation relative to Emax control was calculated.

human Kv1.3 = target: T2, human Kv1.3 (Homo sapiens, UniProt P22001); test: Thallium-sensitive fluorescence assay for the voltage gated ion channel Kv1.3 in Jurkat cells; assay type: cell-based; settings: for inhibition at 10 µM: Jurkat, read-out: KV1,3 antagonist activity [% Inhibition at 10 μM]; for IC50: read-out: KV1,3 antagonist activity IC50
T2 construct: expressed in transfected cells; host or cells: Jurkat cells
Method: 2. Assay for the Voltage Gated Ion Channel Kv1.3
Assays were performed and analyized with a FLIPR^TETRA device as specified above.
Compounds for inhibition of ion channel Kv1.3 were assayed in Jurkat cells recombinantly expressing human Kv1.3. For high throughput screening a thallium-sensitive, fluorescence-based assay was used. […] To identify blockers of this ion channel the cells were incubated with different concentrations of compounds 5 min before increasing the potassium and thallium concentration. The fluorescence signals by increasing potassium were then compared in the absence and presence of compounds. Dose response curves were established by adding different concentrations of compounds and analyzing the signal. As reference Kv1.3 blockers margatoxin and quinidine in Cl-free buffer were used as described in the literature.
The results of the Kv1.3 assay are depicted in Table 51 below.

in vitro [1] = assay type: in vitro ADME, human; settings: human, plasma; for Plasma Stability 240 min hum [% remain.]: 4 h
in vitro [2] = assay type: in vitro ADME, mouse; settings: plasma; for Plasma Stability 240 min mouse [% remain.]: 4 h
[3] = Metabolic stability assay, human microsomes; assay type: in vitro ADME; settings: human, microsomes; for Metabolic Stability 60 min hum [% remain.]: 1 h; for half-life at 10 µM: both sexes
[4] = Metabolic stability assay, CD-1 mouse microsomes; assay type: in vitro ADME; settings: microsomes; for Metabolic Stability 60 min mouse [% remain.]: 1 h; for half-life at 10 µM: both sexes
[5] = target: T3, 5-hydroxytryptamine 2B (5-HT2B) Receptor (Homo sapiens, UniProt P41595); test: Ca2+ assay (FLIPR) for the GPCR 5-HT2B receptor, agonist and antagonist mode; assay type: cell-based
T3 construct: host or cells: Ca2+ optimized hematopoietic cell lines (rat)
Method: Ca^2+ Assays for the GPCRs Motilin Receptor, Prostaglandin F (FP) Receptor, 5-hydroxytryptamine 2B (5-HT2B) Receptor, and Purinoreceptor P2Y1
as §1, §2, §3, §4, §5, §6
as §7, with “Cells were harvested and seeded (from cultures at less than 90% confluency) at 50000 cells/well for a 96-well plate (12500 cells/well for 384).” left out
as §8, §9, §10, §11, §12, §13, §14, §15

Motilin Receptor = target: T4, Motilin Receptor (Homo sapiens, UniProt O43193); test: Ca2+ assay (FLIPR) for the GPCR motilin receptor, agonist and antagonist mode; assay type: cell-based; settings: antagonist mode
T4 construct: host or cells: Ca2+ optimized hematopoietic cell lines (rat)

[6] = target: T5, Prostaglandin F (FP) Receptor (Homo sapiens, UniProt P43088); test: Ca2+ assay (FLIPR) for the GPCR prostaglandin F (FP) receptor, agonist and antagonist mode; assay type: cell-based; settings: 10 μM
T5 construct: host or cells: Ca2+ optimized hematopoietic cell lines (rat)
Outline: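 Ca2+-optimized rat hematopoietic cells carrying the receptor were loaded with Fluo-8 in HBSS/20 mM HEPES/2.5 mM probenecid and read on FLIPR. Agonist mode: 10 min compound incubation at 25 °C, % activation relative to Emax. Antagonist mode: stimulation at EC80 of the reference agonist (prostaglandin F2α for FP, 2MeSATP for P2Y1), fluorescence monitored 180 s.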
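For Plasma Stability 240 min mouse [% remain.] in this document: sodium citrate stabilized mouse plasma, parent compound quantified by HPLC/MS/MS relative to its peak area at time zero, run in triplicate.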
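For Plasma Stability T½ [min] mouse in this document: sodium citrate stabilized mouse plasma, parent compound quantified by HPLC/MS/MS relative to its peak area at time zero, run in triplicate.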

T3 sequence (P41595 whole entry, species assumed): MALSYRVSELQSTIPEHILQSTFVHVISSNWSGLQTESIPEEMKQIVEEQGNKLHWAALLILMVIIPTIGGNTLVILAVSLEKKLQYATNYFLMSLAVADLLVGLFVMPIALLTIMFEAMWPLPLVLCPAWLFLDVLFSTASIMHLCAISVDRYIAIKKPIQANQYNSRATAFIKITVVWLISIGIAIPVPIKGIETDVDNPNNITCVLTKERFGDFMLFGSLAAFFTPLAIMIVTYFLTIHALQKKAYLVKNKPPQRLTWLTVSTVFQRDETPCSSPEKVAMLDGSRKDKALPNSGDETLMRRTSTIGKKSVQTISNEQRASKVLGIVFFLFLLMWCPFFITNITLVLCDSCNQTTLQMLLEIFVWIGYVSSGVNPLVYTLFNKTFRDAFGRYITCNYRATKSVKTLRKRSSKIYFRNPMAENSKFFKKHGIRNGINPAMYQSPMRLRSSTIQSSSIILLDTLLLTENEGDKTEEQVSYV
T2 sequence (P22001 whole entry): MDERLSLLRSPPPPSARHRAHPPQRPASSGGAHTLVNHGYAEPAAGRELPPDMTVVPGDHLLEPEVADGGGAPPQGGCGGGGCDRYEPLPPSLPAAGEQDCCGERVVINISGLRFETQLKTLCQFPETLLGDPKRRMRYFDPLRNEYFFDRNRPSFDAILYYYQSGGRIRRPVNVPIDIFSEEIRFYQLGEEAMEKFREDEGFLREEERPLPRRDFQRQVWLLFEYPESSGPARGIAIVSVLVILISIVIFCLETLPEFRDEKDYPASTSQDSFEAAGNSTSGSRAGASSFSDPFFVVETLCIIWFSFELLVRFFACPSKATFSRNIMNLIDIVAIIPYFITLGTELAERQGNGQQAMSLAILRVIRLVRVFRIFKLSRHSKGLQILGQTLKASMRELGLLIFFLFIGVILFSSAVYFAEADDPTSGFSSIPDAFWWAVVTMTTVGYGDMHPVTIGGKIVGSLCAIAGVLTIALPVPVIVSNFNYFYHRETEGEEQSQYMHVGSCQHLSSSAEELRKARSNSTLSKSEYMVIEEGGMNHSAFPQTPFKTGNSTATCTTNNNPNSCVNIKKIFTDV
T1 sequence (P47900 whole entry): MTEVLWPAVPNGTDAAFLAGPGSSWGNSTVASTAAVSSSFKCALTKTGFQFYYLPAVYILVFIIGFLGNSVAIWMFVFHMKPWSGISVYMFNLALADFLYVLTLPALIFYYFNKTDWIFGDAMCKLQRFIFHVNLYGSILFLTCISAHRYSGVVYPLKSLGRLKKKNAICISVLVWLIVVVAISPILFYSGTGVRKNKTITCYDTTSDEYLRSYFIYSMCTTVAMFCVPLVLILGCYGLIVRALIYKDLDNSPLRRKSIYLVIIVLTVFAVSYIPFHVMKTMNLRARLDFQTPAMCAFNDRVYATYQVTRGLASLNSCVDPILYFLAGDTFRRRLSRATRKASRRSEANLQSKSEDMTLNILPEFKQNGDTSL
T4 sequence (O43193 whole entry, species assumed): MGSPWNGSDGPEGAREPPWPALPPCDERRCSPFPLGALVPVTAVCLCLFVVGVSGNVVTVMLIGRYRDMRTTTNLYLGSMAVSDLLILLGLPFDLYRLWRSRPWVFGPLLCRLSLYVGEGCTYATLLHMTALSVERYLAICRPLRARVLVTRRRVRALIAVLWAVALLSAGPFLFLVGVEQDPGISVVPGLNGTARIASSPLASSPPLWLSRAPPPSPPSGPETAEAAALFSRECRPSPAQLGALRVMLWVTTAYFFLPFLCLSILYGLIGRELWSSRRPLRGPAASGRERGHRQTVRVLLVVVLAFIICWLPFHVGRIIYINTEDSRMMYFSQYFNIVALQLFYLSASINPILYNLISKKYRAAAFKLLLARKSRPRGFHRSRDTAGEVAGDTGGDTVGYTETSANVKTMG
T5 sequence (P43088 whole entry): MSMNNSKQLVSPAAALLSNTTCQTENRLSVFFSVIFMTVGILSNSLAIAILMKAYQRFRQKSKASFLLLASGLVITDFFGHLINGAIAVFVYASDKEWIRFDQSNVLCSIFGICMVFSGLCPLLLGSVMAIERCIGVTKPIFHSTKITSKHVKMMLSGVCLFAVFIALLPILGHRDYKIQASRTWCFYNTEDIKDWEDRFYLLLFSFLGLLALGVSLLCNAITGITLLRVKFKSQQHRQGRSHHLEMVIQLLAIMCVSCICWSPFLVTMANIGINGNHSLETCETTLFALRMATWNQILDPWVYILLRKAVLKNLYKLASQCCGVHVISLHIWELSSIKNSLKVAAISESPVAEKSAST

Row | Structure (SMILES) | EC50 [5] [µM] | Agonist activity [% activation at 12.5 μM] [5] [%] | Plasma Stability T½ [min] hum (in vitro [1]; 10 µM) [min] | Plasma Stability 240 min hum [% remain.] (in vitro [1]; 10 µM) | Plasma Stability T½ [min] mouse (in vitro [2]; both, CD-1, mouse, 10 µM) [min] | Plasma Stability 240 min mouse [% remain.] (in vitro [2]; both, CD-1, mouse, 10 µM) | half-life at 10 µM [3] [h] | Metabolic Stability 60 min hum [% remain.] ([3]; both, 10 µM) | Metabolic Stability 60 min mouse [% remain.] ([4]; both, CD-1, mouse, 10 µM) | inhibition at 10 µM (human Kv1.3) [%] | also measured
1 | CN1CC(=O)N2C[C@H](NC(=O)CCc3ccncc3)C[C@H]2CSc2cccc(c2)C(=O)N(C)[C@H](C(=O)NCc2ccc3ccccc3c2)CCC1=O [Ex. 321, (4S,6R,15S)-11,16-dimethyl-N-(2-naphthylmethyl)-9,12,17-trioxo-6-{[3-(4-pyridinyl)propanoyl]amino}-2-thia-8,11,16-triazatricyclo[16.3.1.0^4,8]docosa-1(22),18,20-triene-15-carboxamide] | – | – | – | – | – | – | – | – | – | – | IC50 (Purinoreceptor P2Y1): 7.5 µM; inhibition at 10 µM (Purinoreceptor P2Y1; 10 μM): 45%
2 | CCCCC(=O)N[C@H]1C[C@H]2COc3cccc(c3)C(=O)N(C)CC[C@H](NC(=O)CCc3ccncc3)C(=O)N2C1 [Ex. 170] | – | – | – | – | – | – | – | – | – | – | KV1,3 antagonist activity [% Inhibition at 10 μM] (human Kv1.3; 10 μM): 10%; Plasma Stability T½ [min] hum (in vitro [1]): > 240 min; Plasma Stability 240 min hum [% remain.] (in vitro [1]): 92 % remain.; Plasma Stability T½ [min] mouse (in vitro [2]; mouse): > 240 min; Plasma Stability 240 min mouse [% remain.] (in vitro [2]; mouse): 100 % remain.; Metabolic Stability T½ [min] hum [3]: > 60 min; Metabolic Stability 60 min hum [% remain.] [3]: 60 % remain.; Metabolic Stability T½ [min] mouse ([4]; mouse): > 60 min; Metabolic Stability 60 min mouse [% remain.] ([4]; mouse): 86 % remain.
3 | CN(C)CC(=O)N[C@H]1C[C@H]2COc3ccc(F)cc3C(=O)N(C)[C@H](C(=O)NCCc3c[nH]c4ccccc34)CCC(=O)N(C)CC(=O)N2C1 [Ex. 16, (2S,11S,19aS)-2-{[2-(dimethylamino)acetyl]amino}-15-fluoro-N-[2-(1H-indol-3-yl)ethyl]-7,12-dimethyl-5,8,13-trioxo-2,3,6,7,8,9,10,11, 12,13,19,19a-dodecahydro-1H,5H-pyrrolo [2,1-c] [1,4,7,12]benzoxatriazacyclopentadecine-11-carboxamide] | 6.6 | 45 | > 240 | 95 | > 240 | 97 | 0.633 | 31 | 79 | – | Metabolic Stability T½ [min] mouse ([4]; both, CD-1, mouse, 10 µM): > 60 min
4 | CCCCC(=O)N[C@H]1C[C@H]2COc3cccc(c3)C(=O)N(C)CC[C@H](NC(=O)c3ccc4ccccc4c3)C(=O)N2C1 [Ex. 171, N-[(4S,6S,10S)-13-methyl-9,14-dioxo-6-(pentanoylamino)-2-oxa-8,13-diazatricyclo[13.3.1.0^4,8]nonadeca-1(19),15,17-trien-10-yl]-2-naphthamide] | – | – | – | – | – | – | – | – | – | 12 | –
5 | CN1CCC(NC(=O)OCc2ccccc2)C(=O)N2CC(NC(=O)Cc3ccc4ccccc4c3)CC2COc2cccc(c2)C1=O [Ex. 168, benzyl N-[(4S,6S,10S)-13-methy1-6-{[2-(2-naphthyl)acetyl]amino}-9,14-dioxo-2-oxa-8,13-diazatricyclo [13.3.1.0^4,8]nonadeca-1(19),15,17-trien-10-yl]carbamate] | – | – | > 240 | 85 | > 240 | 99 | 0.417 | 17 | 21 | 44 | IC50 (human Kv1.3): 1.69 µM; half-life at 10 µM ([4]; CD-1, mouse): 0.433 h
6 | CN1CC[C@H](NC(=O)Cc2cccc3ccccc23)C(=O)N2C[C@@H](NC(=O)Cc3ccc4ccccc4c3)C[C@H]2COc2cccc(c2)C1=O [Ex. 177, N-[(4S,6S,10S)-13-methyl-6-{[2-(2-naphthyl)acetyl]amino}-9,14-dioxo-2-oxa-8,13-diazatricyclo[13.3.1.0^4,8]nonadeca-1(19),15,17-trien-10-yl]-2-(1-naphthyl)acetamide] | – | – | – | – | – | – | – | – | – | 54 | IC50 (human Kv1.3): 3.5 µM
7 | CC(=O)N[C@H]1C[C@H]2COc3ccc(F)cc3C(=O)N(C)[C@H](C(=O)NCCc3c[nH]c4ccccc34)CCC(=O)N(C)CC(=O)N2C1 [Ex. 9, (2S,11S,19aS)-2-(acetylamino)-15-fluoro-N-[2-(1H-indol-3-yl)ethyl]-7,12-dimethyl-5,8,13-trioxo-2,3,6,7,8,9,10,11,12,13,19,19a-dodecahydro-1H,5H-pyrrolo[2,1-c] [1,4,7,12]benzoxatriazacyclopentadecine-11-carboxamide] | 12 | 48 | > 240 | 99 | > 240 | 93 | 0.533 | 20 | 80 | – | Metabolic Stability T½ [min] mouse ([4]; both, CD-1, mouse, 10 µM): > 60 min
8 | CCCCC(=O)N[C@H]1C[C@H]2COc3cccc(c3)C(=O)N(C)CC[C@H](NC(=O)OCc3ccccc3)C(=O)N2C1 [Ex. 166, benzyl N-[(4S,6S,10S)-13-methyl-9,14-dioxo-6-(pentanoylamino)-2-oxa-8,13-diazatricyclo[13.3.1.0^4,8]nonadeca-1(19),15,17-trien-10-yl]carbamate] | – | – | – | – | – | – | – | – | – | 20 | –
9 | CN1CC(=O)N2C[C@@H](NC(=O)Cc3c[nH]c4ccccc34)C[C@H]2COc2ccc(F)cc2C(=O)N(C)[C@H](C(=O)NCCc2c[nH]c3ccccc23)CCC1=O [Ex. 12, (2S,11S,19aS)-15-fluoro-2-{[2-(1H-indol-3-yl)acetyl]amino}-N-[2-(1H-indol-3-yl)ethyl]-7,12-dimethyl-5,8,13-trioxo-2,3,6,7,8,9,10,11,12,13, 19,19a-dodecahydro-1H,5H-pyrrolo[2,1-c] [1,4,7,12]benzoxatriazacyclopentadecine-11-carboxamide] | 3.3 | 36 | > 240 | 99 | > 240 | 100 | 0.283 | 7 | 33 | – | IC50 (Motilin Receptor): 2.7 µM; inhibition at 10 µM (Motilin Receptor; at 10 μM): 95%; inhibition at 10 µM [6]: 44%; half-life at 10 µM ([4]; CD-1, mouse): 0.583 h
